A short description of data set [1]: Preliminary toxicity studies.
The target of data set [2] is T1, SEVI (aggregated semen enhancer of virus infection) (Homo sapiens, UniProt P15309).
T1 construct: SEVI is the aggregated portion of the human protein that promotes infectivity
T1 sequence (P15309 248-286 limits assumed): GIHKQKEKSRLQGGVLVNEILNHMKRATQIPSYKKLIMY
The data set is described as follows: Dansyl fluorescence binding study with SEVI. Here is the method: FIG. 1A is a graph of fluorescence spectra of a first dansylated peptide according to the present invention in a binding study with PAP and SEVI at a first concentration;
FIG. 1B is a graph of fluorescence spectra of the first dansylated peptide according to the present invention in a binding study with PAP and SEVI at a first concentration incubated for 24 hours;
FIG. 2A is a graph of fluorescence spectra of a first dansylated peptide according to the present invention in a binding study with PAP and SEVI at a second concentration; and
FIG. 2B is a graph of fluorescence spectra of a second dansylated peptide according to the present invention in a binding study with PAP and SEVI at a second concentration.
Dansyl is the fluorescent dye that is attached to peptides. A change in Dansyl fluorescence indicates change in the environment, i.e. binding. The physiological concentration of PAP and SEVI is 5 micromolar.

Residues, ends and D or L forms follow the SMILES beside them. *: point of attachment. Dansyl = CN(C)c1cccc2c(S(=O)(=O)*)cccc12

For orientation: Kd means the equilibrium constant for the complex coming apart.

As to `CC[C@H](C)[C@H](NC(=O)CNS(=O)(=O)c1cccc2c(N(C)C)cccc12)C(=O)NCC(=O)N[C@@H](C)C(=O)N[C@H](C(=O)N[C@@H](CC(C)C)C(=O)N[C@@H](CCC(=O)O)C(=O)N[C@H](C(=O)N[C@@H](CC(C)C)C(=O)N[C@H](C(=O)N[C@H](C(=O)NCC(=O)N[C@@H](CC(C)C)C(=O)N1CCC[C@H]1C(=O)N[C@@H](C)C(=O)N[C@@H](CC(C)C)C(=O)N[C@H](C(=O)N[C@@H](CO)C(=O)N[C@@H](Cc1c[nH]c2ccccc12)C(=O)N[C@H](C(=O)N[C@@H](CCC(=O)O)C(=O)N[C@@H](CCC(=O)O)C(=O)N[C@@H](CCC(=O)O)C(=O)N[C@@H](CCC(=O)O)C(=O)N[C@@H](CCC(N)=O)C(=O)N[C@@H](CCC(N)=O)C(N)=O)[C@@H](C)CC)[C@@H](C)CC)[C@@H](C)O)[C@@H](C)O)C(C)C)C(C)C` [Peptide 2], the toxicity entry in data set [1] is listed as “non-toxic”.
As to `CC[C@H](C)[C@H](NC(=O)[C@H](CCC(=O)O)NC(=O)[C@H](CCC(N)=O)NC(=O)[C@@H](NC(=O)[C@@H](NC(=O)[C@H](CCC(=O)O)NC(=O)[C@H](CCC(=O)O)NC(=O)[C@H](Cc1ccccc1)NS(=O)(=O)c1cccc2c(N(C)C)cccc12)[C@@H](C)CC)C(C)C)C(=O)N[C@@H](CCC(=O)O)C(=O)N[C@@H](CC(=O)O)C(=O)N[C@@H](Cc1ccccc1)C(=O)N[C@@H](CC(C)C)C(=O)N[C@@H](CCC(=O)O)C(=O)N[C@@H](CC(N)=O)C(=O)N[C@@H](CC(C)C)C(=O)N[C@H](C(N)=O)C(C)C` [Peptide 1, FEEIVQEIEDFLENLV] (Dansyl-FEEIVQEIEDFLENLV-NH2), the toxicity entry in data set [1] is “non-toxic”. In data set [2], the Kd is under 5 µM.

Values taken from patent US10695399B2, “Peptides for prevention of HIV infection” (SYRACUSE UNIVERSITY, priority 2017, dated 2020).
